Experimental findings from PMC6380545, “Myoinhibitory peptide signaling modulates aversive gustatory learning in Caenorhabditis elegans” (PLoS Genetics, 2019) are described below.

Several values for one entry are separate records, joined by “and”; a condition that tells them apart may be missing. Identical values can stand only once. Starred links: 1 amine or outer side, 2 acyl side, 3 side chain; linkers in the order of their positions; H or OH if unused. Positions of bridges follow the written chain, without caps; N, C: chain ends. Non-standard residues stand in square brackets, D forms with d. Residues, ends and D or L forms follow the SMILES beside them. Chains are numbered I, II in the order given. No end group written: not given here. Actinocin(9to1) = Cc1c2oc3c(C)ccc(C(=O)[*:1])c3nc-2c(C(=O)[*:2])c(N)c1=O; NMeV = CN[C@H](C(=O)O)C(C)C; Sar = CNCC(=O)O

For assay [1], the system named is C. elegans. As to the kind of experiment: Taste associative learning, 6 h conditioning with NaCl in the presence of food. The conditions noted are these: for CI: food (+): 6 hours conditioning on NGM plates with 100 mM NaCl in the presence of bacterial food, with the drug, gradient chemotaxis assay, each row is one single assay (replicate), Figure S5A; for learning behavior after conditioning with 100 mM NaCl in the presence of food: wild-type, blocker in conditioning plates, cycloheximide 300 μg/mL, actinomycin D 50 μg/mL, n ≥ 8. The assay is classed as in vivo. How it is done:
(A) Overview of taste associative learning assays. Synchronized young adult C. elegans are conditioned for six hours on NaCl-containing plates with or without bacterial food. Salt chemotaxis behavior of worms is then tested on NaCl concentration gradients. The CI is calculated from the number of worms that migrated toward the lower and upper parts of the gradient. Worms chemotax to the salt concentrations at which they were fed, but avoid salt concentrations at which they were starved. […] (C) Expression of sprr-2 under its promoter sequence [sprr-2p::sprr-2] rescues the salt avoidance learning defect of sprr-2 mutants. (D) Expression of mip-1 under control of its endogenous promoter sequence [mip-1p::mip-1] rescues the salt avoidance learning defect of mip-1 mutants. (E) A mip-1; sprr-2 double mutant has no additive learning defect. (F) Blocking translation (cycloheximide) or transcription (actinomycin D) during conditioning impairs salt avoidance learning in wild-type animals. (G) Salt avoidance learning of mutants for transcription factors and regulators linked to learning and memory. […] For (B-H), boxplots indicate 25th (lower boundary), 50th (line), and 75th (upper boundary) percentiles. Whiskers show minimum and maximum values. Individual CIs, blue dots. Outliers, black dots. Statistical comparisons by one-way ANOVA and Tukey post-hoc test (n ≥ 6). *p<0.05; **p<0.005; ***p<0.001; n.s., not significant.
Worms were washed off the cultivation plates with chemotaxis buffer (25 mM KH2PO4/K2HPO4 pH 6.6, 1 mM MgSO4, 1 mM CaCl2, 50 mM NaCl) and transferred to unseeded (salt avoidance learning) or seeded NGM conditioning plates with 100 mM NaCl. After 6 hours, animals were washed off and rinsed once with chemotaxis buffer before testing chemotaxis towards NaCl on salt concentration gradients. Salt concentration gradients consisted of a thin layer of 50 mM NaCl 2% agar solution in chemotaxis buffer (background agar, 10 mL was poured into 8.5 cm diameter plates). Additionally, 2% agar in chemotaxis buffer solutions supplemented without 0 mM (lower side) or with 150 mM NaCl (higher side) were prepared by pouring 10 mL agar solution into 35 mm diameter plates. Cylindrical blocks with the diameter of a 15 mL falcon tube were excised from either solution and applied on the background agar 3 cm off centre in opposite directions. Salt concentration gradients were subsequently placed at 20°C for 18 hours before removing the agar chunks prior to use. 30 to 150 worms were placed at the origin and allowed to move freely for 45 minutes after which the CI was calculated as N(higher)—N(lower) / N(all)—N(origin) where N(higher) or N(lower) is the number of animals within a 2-cm radius from the centre of the blocks. Animals within a 1-cm radius from the origin were excluded from the assay. […]

The test system of assay [2] is C. elegans. In words: Salt avoidance learning (taste associative learning, 6 h conditioning with NaCl without food). Type of assay: in vivo. The conditions noted are these: wild-type, blocker in conditioning plates, cycloheximide 300 μg/mL, actinomycin D 50 μg/mL, 100 mM NaCl without food. An excerpt: We next explored the behavior of sprr-2 mutants in a second established type of gustatory associative learning that depends on food availability and external salt concentration, generally referred to as taste associative learning. […] In contrast, they are averted by NaCl concentrations at which they were starved, a behavior that is called salt avoidance learning (Fig 5A, see Methods). To test taste associative learning of sprr-2 mutants, we fed or starved animals, respectively, for six hours on conditioning plates with 25 mM NaCl (low salt) or 100 mM NaCl (high salt). […] This salt avoidance learning defect could be rescued by reintroducing wild-type copies of sprr-2 under control of its endogenous promoter (Fig 5C). […]
(A) Overview of taste associative learning assays. […] The CI is calculated from the number of worms that migrated toward the lower and upper parts of the gradient. […]
Worms were washed off the cultivation plates with chemotaxis buffer (25 mM KH2PO4/K2HPO4 pH 6.6, 1 mM MgSO4, 1 mM CaCl2, 50 mM NaCl) and transferred to unseeded (salt avoidance learning) or seeded NGM conditioning plates with 100 mM NaCl. […] 30 to 150 worms were placed at the origin and allowed to move freely for 45 minutes after which the CI was calculated as N(higher)—N(lower) / N(all)—N(origin) where N(higher) or N(lower) is the number of animals within a 2-cm radius from the centre of the blocks. […]

Assay [3] concerns the target T1, SPRR-2 (Caenorhabditis elegans, UniProt Q93704).
T1 construct: host or cells: CHO-WTA11 cells (CHO stably expressing aequorin and Galpha16), transiently transfected with sprr-2/pcDNA3.1
T1 sequence (Q93704 1-451): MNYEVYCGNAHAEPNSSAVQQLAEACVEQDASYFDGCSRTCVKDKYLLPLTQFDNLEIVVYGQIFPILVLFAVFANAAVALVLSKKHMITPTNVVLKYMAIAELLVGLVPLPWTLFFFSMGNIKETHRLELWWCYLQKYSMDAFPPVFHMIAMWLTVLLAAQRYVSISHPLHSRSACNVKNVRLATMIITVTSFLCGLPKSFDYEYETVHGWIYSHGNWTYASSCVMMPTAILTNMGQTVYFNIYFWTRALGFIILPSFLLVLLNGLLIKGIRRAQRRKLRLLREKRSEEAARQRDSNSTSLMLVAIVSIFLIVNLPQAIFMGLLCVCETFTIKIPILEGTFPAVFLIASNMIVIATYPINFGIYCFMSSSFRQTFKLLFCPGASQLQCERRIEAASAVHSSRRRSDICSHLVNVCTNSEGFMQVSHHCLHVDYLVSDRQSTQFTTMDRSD
In words: Ca2+ luminescence (aequorin) GPCR activation assay, CHO cells expressing SPRR-2. The conditions noted are these: CHO cells expressing SPRR-2, Gα16 and aequorin; 0.1 nM to 100 μM; n ≥ 4; read-out: EC50 values (95% CI) for activation of SPRR-2. Type of assay: cell-based, C. elegans. The text has this: Fig 2 MIP-1 neuropeptides activate the MIP receptor ortholog SPRR-2. (A) Ca^2+ luminescence assay for measuring GPCR activation. SPRR-2 is expressed in CHO cells that stably co-express the promiscuous Gα16 protein, which couples the receptor’s activation to the Ca^2+ pathway. Intracellular Ca^2+ levels are monitored by the luminescent Ca^2+ indicator aequorin. (B) Domain structure of the C. elegans NLP-38 peptide precursor, henceforward named MIP-1. Gene models predict that the mip-1 gene encodes two protein isoforms (Wormbase WS261), MIP-1A and MIP-1B, which yield five putative MIP-1 peptides. Predicted proprotein convertase sites are indicated in red. Residues belonging to the W-X5-8-Wamide motif, typical of protostomian MIPs, are indicated in brown. (C) MIP-1 peptides dose-dependently activate SPRR-2. Ca^2+responses of CHO cells expressing SPRR-2 are shown relative (%) to the highest value (100% activation) after normalization to the total Ca^2+ response. […] Error bars show SEM (n ≥ 4).
The C. elegans ortholog SPRR-2 of the insect MIP receptor is an orphan GPCR, meaning that its ligand(s) is unknown. To identify its ligand(s), we used a calcium (Ca^2+)-based reporter assay for GPCR activation wherein SPRR-2 is expressed in Chinese Hamster Ovary (CHO) cells (Fig 2A). We challenged these receptor-expressing cells with a synthetic library of ~350 C. elegans neuropeptides. […] These peptides (NLP-38-1 to 5) all have a C-terminal glycine residue (G) indicative of post-translational modification into an amide (-NH2) group in the mature peptides. In addition, these peptides display the C-terminal sequence W-X5-8-Wamide (Fig 2B), which is typical for MIP neuropeptides in other protostomian species. Because of its relationship to protostomian MIP neuropeptide precursors, we refer to the NLP-38 precursor from here onwards as "MIP-1".
The GPCR activation assay was performed as previously described. Briefly, CHO cells stably expressing the luminescent Ca^2+ indicator aequorin and the promiscuous Gα16 protein (CHO-WTA11 cells, PerkinElmer) were transiently transfected with sprr-2/pcDNA3.1, sprr-1/pcDNA3.1, sprr-3/pcDNA3.1, or empty pcDNA3.1 vector. […] After loading, the transfected cells were added at a density of 25,000 cells/well, and luminescence was measured for 30 s at a wavelength of 469 nm. After 30 s, 0.1% triton X-100 (Merck) was added to lyse the cells, resulting in a maximal Ca^2+ response that was measured for 10 s. […]
All behavioral experiments were performed at least in duplicate on at least two independent days. Total size number is indicated in figure legends by N. Statistical Significance was determined when p < 0.05 as indicated in the figure legends. […]

With `Cc1c2oc3c(C)ccc(C(=O)N[C@@H]4C(=O)N[C@H](C(C)C)C(=O)N5CCC[C@H]5C(=O)N(C)CC(=O)N(C)[C@@H](C(C)C)C(=O)O[C@@H]4C)c3nc-2c(C(=O)N[C@@H]2C(=O)N[C@H](C(C)C)C(=O)N3CCC[C@H]3C(=O)N(C)CC(=O)N(C)[C@@H](C(C)C)C(=O)O[C@@H]2C)c(N)c1=O` [actinomycin D] (I: T[dV]P[Sar][NMeV] / II: T[dV]P[Sar][NMeV]; ester I:1-I:C, II:1-II:C; linker I:N-II:N via Actinocin(9to1)), in assay [1], the CI was 0.5595 and 0.6629 and 0.7488 and 0.5052 and 0.5581 and 0.5185; the “learning behavior after conditioning with 100 mM NaCl in the presence of food” value is on record as “does not impair”. Further, the “avoidance of high salt concentrations experienced during starvation (salt avoidance learning)” value in assay [2] is reported as “significantly weakened”.
`C[C@@H]1C[C@@H]([C@H](O)CC2CC(=O)NC(=O)C2)C(=O)[C@@H](C)C1` [cycloheximide]: in assay [1], the CI is 0.19 and 0.26 and 0.65 and 0.48 and 0.38 and 0.54 and 0.7415 and 0.7427; the “learning behavior after conditioning with 100 mM NaCl in the presence of food” value was “does not impair”. The “avoidance of high salt concentrations experienced during starvation (salt avoidance learning)” value in assay [2] is listed as “significantly weakened”.
In the case of ASDDRVLGWNKAHGLW-NH2 [MIP-1-4], the EC50 in assay [3] turned out to be 0.00832 µM.
Same read-out and setting: the figure for SPAQWQRANGLW-NH2 [MIP-1-3] is 0.0161 µM; for TPQNWNKLNSLW-NH2 [MIP-1-2] it is 0.0142 µM; for VLGWNKAHGLW-NH2 [MIP-1-1] it is 0.0075 µM.

As a reminder, the EC50 is the concentration that produces a half-maximal response.
